The results in this text go back to ChEMBL document CHEMBL5584233, “Amide bioisosteric replacement in the design and synthesis of quorum sensing modulators” (Eur J Med Chem, 2024).

Experiment [1] deals with T1, Transcriptional activator protein LasR (Pseudomonas aeruginosa (strain ATCC 15692 / PAO1 / 1C / PRS 101 / LMG12228), UniProt P25084).
T1 sequence (P25084 whole entry): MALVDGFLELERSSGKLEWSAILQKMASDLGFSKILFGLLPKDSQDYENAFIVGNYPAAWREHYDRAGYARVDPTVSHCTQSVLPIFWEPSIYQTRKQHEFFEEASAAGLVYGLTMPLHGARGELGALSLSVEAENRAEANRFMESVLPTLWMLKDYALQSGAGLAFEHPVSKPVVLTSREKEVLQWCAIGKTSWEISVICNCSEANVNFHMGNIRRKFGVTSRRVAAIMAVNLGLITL
The experiment can be described thus: Inhibition of LasR-mediated quorum sensing system in Pseudomonas aeruginosa PAO1 assessed as inhibition of pyocyanin production incubated for 24 hrs by absorbance based assay.

Experiment [2] concerns the target T2, Transcriptional regulator MvfR (Pseudomonas aeruginosa PA14, UniProt A0A072ZLE6).
T2 sequence (A0A072ZLE6 whole entry): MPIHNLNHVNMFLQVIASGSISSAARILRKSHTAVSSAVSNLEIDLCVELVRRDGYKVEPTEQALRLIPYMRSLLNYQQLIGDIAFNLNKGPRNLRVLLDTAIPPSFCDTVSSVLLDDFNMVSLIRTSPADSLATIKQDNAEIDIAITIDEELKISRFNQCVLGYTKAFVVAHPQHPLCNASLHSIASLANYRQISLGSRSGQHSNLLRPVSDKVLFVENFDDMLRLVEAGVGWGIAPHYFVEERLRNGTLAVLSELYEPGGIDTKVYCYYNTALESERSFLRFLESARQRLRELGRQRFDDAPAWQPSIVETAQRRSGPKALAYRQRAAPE
In words: Inhibition of PqsR-mediated quorum sensing system in Pseudomonas aeruginosa PAO1 assessed as inhibition of pyocyanin production at 20 uM incubated for 24 hrs by absorbance based assay.

The nature of experiment [3]: Inhibition of quorum sensing system in Pseudomonas aeruginosa PAO1.
For a further experiment, the system named is Pseudomonas aeruginosa. The experiment can be described thus: Antibiofilm activity against Pseudomonas aeruginosa PAO1 assessed as inhibition of biofilm formation at 50 uM incubated for 24 hrs by crystal violet staining based absorbance assay relative to control. More on the design: scale not given: the % may be the effect or the level left. It counts as functional.

The target in experiment [4] is T2, Transcriptional regulator MvfR. The experiment can be described thus: Inhibition of PqsR-mediated quorum sensing system in Pseudomonas aeruginosa PAO1 assessed as inhibition of pyocyanin production incubated for 24 hrs by absorbance based assay.
The nature of experiment [5]: Inhibition of quorum sensing system in Chromobacterium violaceum CV026 assessed as reduction in violacein production.
Experiment [6] deals with T1, Transcriptional activator protein LasR. The experiment can be described thus: Inhibition of LasR-mediated quorum sensing system in Pseudomonas aeruginosa PAO1 assessed as inhibition of elastase production.
In experiment [7] the target is T2, Transcriptional regulator MvfR. The experiment can be described thus: Antagonist activity at PqsR in wild-type Pseudomonas aeruginosa PAO1 assessed as reduction in AQ level.
Experiment [8] shares this target. In words: Antagonist activity at PqsR in Pseudomonas aeruginosa IPCD48 clinical isolate assessed as reduction in PQS level at 0.1 uM by LCMS/MS analysis.
A short description of experiment [9]: Inhibition of quorum sensing system in Pseudomonas aeruginosa PAO1 transfected with lasB-GFP by measuring reduction in fluorescence intensity measured for 16 hrs by fluorescence assay.
In experiment [10] the target is T3, Transcriptional activator protein TraR (Agrobacterium tumefaciens, UniProt P33905).
T3 sequence (P33905 whole entry): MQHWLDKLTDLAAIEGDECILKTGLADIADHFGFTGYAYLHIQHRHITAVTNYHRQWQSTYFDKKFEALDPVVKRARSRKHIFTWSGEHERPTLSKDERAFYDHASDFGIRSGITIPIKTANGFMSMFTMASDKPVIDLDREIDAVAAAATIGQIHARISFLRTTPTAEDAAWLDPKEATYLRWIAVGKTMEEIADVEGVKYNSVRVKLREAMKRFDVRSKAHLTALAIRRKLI
In words: Antagonist activity at Agrobacterium tumefaciens TraR receptor.

Experiment [11] addresses T2, Transcriptional regulator MvfR. In words: Antagonist activity at PqsR in wild-type Pseudomonas aeruginosa PAO1-L assessed as reduction in HHQ level at 0.1 uM by LCMS/MS analysis.
Experiment [12] is described as follows: Inhibition of quorum sensing system in Vibrio fischeri. Set-up: species or system Aliivibrio fischeri.
For experiment [13], the target named is T4, Transcriptional regulator MvfR (Pseudomonas aeruginosa PA14) (UniProt A0A072ZLE6).
T4 sequence (whole entry): T2 sequence (A0A072ZLE6 whole entry)
In words: Inhibition of PqsR-mediated quorum sensing system in Pseudomonas aeruginosa PAO1 assessed as inhibition of pyocyanin production at 100 uM relative to control.

Bounds are passed on as bounds.

The IC50 is the point on the concentration scale where inhibition reaches its midpoint. Usually inhibition stands for the relative decrease from the control value, in per cent.

As for `C[C@@H]1O[C@H](CNC(=O)/C=C/c2ccccc2)[C@@H](O)[C@H](O)[C@@H]1O`, in experiment [1], the IC50 is 88 µM.
`CCCCCCc1cncn1C1CCOC1=O` (stereo not drawn): the half-inhibitory concentration (IC50) in experiment [2] is 110 µM.
Compound `CCCCCCCCCS(=O)(=O)N[C@H]1CCOC1=O` displayed an IC50 in [3] of 1 µM.
As to `CO[C@H]1O[C@H](CNS(=O)(=O)c2c(C)cc(C)cc2C)[C@@H](O)[C@H](O)[C@@H]1O`, in [1], the IC50 is 4 µM.
As to `O=C(Nc1ccc(F)cc1)c1cc(=O)c2ccccc2o1`, the Activity in the experiment with Pseudomonas aeruginosa turned out to be 73.3%.
On to `CCCCCNC(=O)NC1CCOC1=O` (stereo not drawn), for which, in experiment [4], the IC50 is 1.1 µM.
On to `O=C(Nc1ccc(S(=O)(=O)N[C@H]2CCOC2=O)cc1)c1sccc1Cl`, for which the concentration for half-maximal inhibition (IC50) in experiment [5] turned out to be 6.2 µM.
In the case of `O=C(Nc1cc(=O)c2ccccc2o1)c1ccc(F)cc1`, the Activity in the experiment on Pseudomonas aeruginosa was 65.3%.
For the compound `O=C(Nc1ccc(S(=O)(=O)N[C@H]2CCOC2=O)cc1)c1ccccc1F`, the half-inhibitory concentration (IC50) in experiment [5] turned out to be 1.6 µM.
For the compound `O=[N+]([O-])c1ccccc1S(=O)(=O)Nc1ccc(S(=O)(=O)Nc2nccs2)cc1`, the 50% inhibitory concentration (IC50) in experiment [6] was determined as 60 µM.
`O=C(Oc1c(Br)cc(Br)cc1CNC(=O)c1ccccc1[N+](=O)[O-])c1ccccc1Cl`: the IC50 in experiment [7] was determined as 0.038 µM.
Turning to `CCOC(=O)CC(=O)c1ccccc1`, in [8], the IC50 turned out to be 76 µM.
For the compound `O=C(NCc1cc(F)cc(F)c1)c1ccccc1[N+](=O)[O-]`, in experiment [9], the half-inhibitory concentration (IC50) was 6.6 µM.
As for `Fc1ccc(-n2cc(CNc3ccnc(C(F)(F)F)c3)nn2)cc1`, the 50% inhibitory concentration (IC50) in [2] stood at 0.196 µM.
Regarding `O=C(NCc1cccc(I)c1)c1ccccc1[N+](=O)[O-]`, the IC50 in experiment [9] was determined as 6.5 µM.
Take `CCCCCCNC(=O)NC1CCOC1=O` (stereo not drawn): in experiment [4], the concentration for half-maximal inhibition (IC50) was 1 µM.
Turning to `O=C(Nc1cc(=O)c2ccccc2o1)c1ccc([N+](=O)[O-])cc1[N+](=O)[O-]`, the Activity in the experiment with Pseudomonas aeruginosa was found to be 90%.
Turning to `CCCCCCS(=O)(=O)N[C@H]1CCOC1=O`, the midpoint of inhibition in [10], the IC50, lay at 0.8 µM.
Consider `CCCCCCc1cncn1CC(=O)OCC`, for which, in experiment [2], the 50% inhibitory concentration (IC50) came to 87 µM.
Turning to `Cc1cc(C)c(S(=O)(=O)NC[C@H]2O[C@@H](C)[C@@H](O)[C@@H](O)[C@@H]2O)c(C)c1`, in experiment [1], the IC50 came to 3 µM.
In the case of `Nc1cc(NCC(=O)Nc2ccc(F)cc2)cc(C(F)(F)F)n1`, the IC50 in [2] was determined as 0.48 µM.
As to `CCCCCCOC(=O)N[C@H]1CCOC1=O`, in experiment [11], the IC50 came out at 73 µM.
With `O=C1OCCC1NS(=O)(=O)CCc1ccccc1` (stereo not drawn), half-maximal inhibition in experiment [12] (IC50) was put at 3 µM.
`CCCCCCCCCCCCn1nnc(CC(=O)O)n1`: in experiment [7], the concentration for half-maximal inhibition (IC50) amounted to 0.03 µM.
`O=C(NCCc1ccc(Br)cc1)c1ccccc1[N+](=O)[O-]` registered an IC50 in experiment [9] of 4.8 µM.
`CCCCCCCCCCS(=O)(=O)N[C@H]1CCOC1=O` came in with an IC50 in experiment [3] of 1.1 µM.
Take `O=C(Nc1ccc([N+](=O)[O-])cc1)c1cc(=O)c2ccccc2o1`: the Activity in the experiment with Pseudomonas aeruginosa is 58.7%.
In the case of `O=C(CN1CCOCC1)Nc1cccc([N+](=O)[O-])c1`, the IC50 in experiment [8] is more than 483 µM.
Consider `CCCCCS(=O)(=O)NC1CCOC1=O` (stereo not drawn), for which the midpoint of inhibition in experiment [12], the IC50, lay at 2 µM.
On to `FC(F)(F)c1cc(NCc2cn(-c3ccc(Oc4ccccc4)cc3)nn2)ccn1`, for which the 50% inhibitory concentration (IC50) in experiment [2] turned out to be 0.011 µM.
For `CCCCSC(=O)N[C@H]1CCOC1=O`, the concentration for half-maximal inhibition (IC50) in [11] amounted to 45 µM.
Take `CCCCNC(=O)CSc1nc2ccccc2c(=O)n1C1CC1`: in experiment [13], the inhibition is 62%.
Turning to `CCOC(=O)CC(=O)c1ccc(F)cc1`, the half-inhibitory concentration (IC50) in experiment [8] came to 23 µM.
Regarding `O=C(N[C@H]1CCOC1=O)SCc1ccc([N+](=O)[O-])cc1`, in [11], the half-inhibitory concentration (IC50) came out at 23 µM.
On to `COc1ccc(NC(=O)Cn2cc(CSc3nc4ccccc4c(=O)n3C3CC3)nn2)cc1`, for which the inhibition in experiment [13] came out at 74%.
Consider `CCCCS(=O)(=O)N[C@H]1CCOC1=O`, for which half-maximal inhibition in experiment [10] (IC50) was put at 0.6 µM.
As to `O=C(N[C@H]1CCOC1=O)OCc1ccc([N+](=O)[O-])cc1`, the 50% inhibitory concentration (IC50) in [11] turned out to be 22 µM.
Take `O=C(CN1CCOCC1)Oc1cccc([N+](=O)[O-])c1`: in experiment [8], the IC50 is 22 µM.
